# From patent US12371428B2 (Exelixis, Inc., priority 2019, dated 2025)
# Where a name gives a salt, the structure may show the parent alone. Read-outs that look alike come from different tables or passages of the source.
# Columns and labels:
# Type in all cases: biochemical
# [1] = target: Human KDR (residues 790-1356) (Homo sapiens (Human), UniProt P35968); assay: Human KDR kinase assay, HTRF KinEase (Example B-2)
# In short: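 Human KDR residues 790-1356 (0.1 ng/well) in buffer with 5 mM MgCl2, 1 mM MnCl2, 1 mM DTT, biotinylated peptide substrate, ATP at Km (4.0 μM), 3% DMSO, 10 compound concentrations; 40 min, room temperature. EDTA stop, streptavidin-XL665/Eu-TK antibody HTRF read 665/620 nm; 4-parameter IC50.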
# [2] = target: Human MET (residues 956-1390) (Homo sapiens (Human), UniProt P08581); assay: Human Met kinase assay, HTRF KinEase (Example D-2); conditions: read-out: c-Met IC50
# Human MET (residues 956-1390), sequence (P08581 956-1390): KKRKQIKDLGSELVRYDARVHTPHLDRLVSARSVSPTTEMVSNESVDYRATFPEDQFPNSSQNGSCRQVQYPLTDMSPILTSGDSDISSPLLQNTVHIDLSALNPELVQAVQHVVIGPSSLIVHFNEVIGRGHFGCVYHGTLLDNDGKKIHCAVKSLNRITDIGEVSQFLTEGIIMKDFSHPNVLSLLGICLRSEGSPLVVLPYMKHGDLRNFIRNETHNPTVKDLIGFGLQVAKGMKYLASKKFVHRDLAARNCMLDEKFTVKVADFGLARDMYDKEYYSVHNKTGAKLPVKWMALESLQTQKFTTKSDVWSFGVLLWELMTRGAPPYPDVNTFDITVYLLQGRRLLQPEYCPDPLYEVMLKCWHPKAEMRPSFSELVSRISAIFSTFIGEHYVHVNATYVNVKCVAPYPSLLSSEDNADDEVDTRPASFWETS
# In short: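 HTRF KinEase assay on MET residues 956-1390 (0.1 ng/well) in buffer with 5 mM MgCl2, 1 mM DTT and 1 mM MnCl2, with biotinylated peptide substrate, ATP at Km, 10 compound concentrations and 3% DMSO final, run 40 min at room temperature. The […] signal was normalized to DMSO and to 1 μM reference compound, and IC50 came from a 4-parameter logistic fit.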
# [3] = target: Human MER (residues 528-999) (Homo sapiens (Human), UniProt Q12866); assay: Human Mer kinase assay, HTRF KinEase (Example C-2)
# Human MER (residues 528-999), sequence (Q12866 528-999): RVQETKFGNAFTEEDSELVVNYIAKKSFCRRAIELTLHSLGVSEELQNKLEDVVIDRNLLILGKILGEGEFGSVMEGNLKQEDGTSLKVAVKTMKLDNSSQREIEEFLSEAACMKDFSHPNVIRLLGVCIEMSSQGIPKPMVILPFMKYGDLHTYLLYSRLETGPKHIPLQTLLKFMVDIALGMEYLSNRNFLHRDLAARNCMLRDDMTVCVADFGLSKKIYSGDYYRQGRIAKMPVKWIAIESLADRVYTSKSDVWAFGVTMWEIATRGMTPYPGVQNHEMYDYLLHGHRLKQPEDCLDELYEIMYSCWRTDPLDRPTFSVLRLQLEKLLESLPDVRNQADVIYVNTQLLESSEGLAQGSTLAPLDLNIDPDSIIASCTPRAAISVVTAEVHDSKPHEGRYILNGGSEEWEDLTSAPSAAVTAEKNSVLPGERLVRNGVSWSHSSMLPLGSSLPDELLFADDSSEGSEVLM
# In short: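 HTRF KinEase TK assay with MER 528-999 (1 ng/well) in enzymatic buffer plus 5 mM MgCl2 and 1 mM DTT, biotinylated peptide substrate and ATP at Km (40 μM), 3% DMSO final, 60 min at room temperature. Stopped with EDTA detection mix (SA-XL665, TK antibody-Eu3+), read at 665/620 nm after 60 min; IC50 from 10-point 4-parameter fit, normalized to DMSO and 1 μM reference.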
# [4] = protocol of Example B-2 (other compounds)
# [5] = protocol of Example D-2 (other compounds)
# [6] = protocol of Example C-2 (other compounds)
# Human KDR (residues 790-1356), sequence (P35968 790-1356): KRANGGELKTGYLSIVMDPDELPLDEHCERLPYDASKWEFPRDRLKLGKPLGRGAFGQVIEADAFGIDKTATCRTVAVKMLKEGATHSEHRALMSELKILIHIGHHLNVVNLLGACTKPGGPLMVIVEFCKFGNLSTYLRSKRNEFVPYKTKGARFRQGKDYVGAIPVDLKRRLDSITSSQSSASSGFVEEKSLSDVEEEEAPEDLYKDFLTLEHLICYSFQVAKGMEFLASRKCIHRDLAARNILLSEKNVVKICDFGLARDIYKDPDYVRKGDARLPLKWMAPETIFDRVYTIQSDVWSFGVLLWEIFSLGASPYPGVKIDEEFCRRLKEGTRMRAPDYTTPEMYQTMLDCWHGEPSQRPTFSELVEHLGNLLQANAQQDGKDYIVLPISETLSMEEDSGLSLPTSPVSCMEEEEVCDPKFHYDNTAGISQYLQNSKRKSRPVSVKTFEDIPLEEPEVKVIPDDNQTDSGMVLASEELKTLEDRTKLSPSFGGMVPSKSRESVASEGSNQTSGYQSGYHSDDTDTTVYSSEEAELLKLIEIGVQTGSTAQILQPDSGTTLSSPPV
Compound,"IC50 [1, 4] [nM]","IC50 [2, 5] [nM]","IC50 [3, 6] [nM]",IC50 ([1]; protocol of Example B-2) [nM],IC50 ([2]; protocol of Example D-2) [nM],IC50 ([3]; protocol of Example C-2) [nM]
"COc1cnc2c(Oc3ccc(NC(=O)c4cnc(C)c(-c5ccc(F)cc5C)c4O)cc3F)ccnc2c1 [Compound 175, N-[3-Fluoro-4-[(7-methoxy-1,5-naphthyridin-4-yl)oxy]phenyl]-5-(4-fluoro-2-methylphenyl)-4-hydroxy-6-methylpyridine-3-carboxamide]",100 to 300,< 100,< 100,–,–,–
"Cc1c(-c2ccc(F)cc2)c(=O)c(C(=O)Nc2ccc(Oc3ccnc4cc(F)cnc34)c(F)c2)cn1C(C)C [Compound 162, N-[3-Fluoro-4-[(7-fluoro-1,5-naphthyridin-4-yl)oxy]phenyl]-5-(4-fluorophenyl)-6-methyl-4-oxo-1-propan-2-ylpyridine-3-carboxamide]",> 300,< 100,100 to 300,–,–,–
"Cc1cc(F)ccc1-c1c(C)ncc(C(=O)Nc2ccc(Oc3ccnc4cc(C(C)C)cnc34)c(F)c2)c1O [Compound 593, 5-(4-Fluoro-2-methylphenyl)-N-[3-fluoro-4-[(7-propan-2-yl-1,5-naphthyridin-4-yl)oxy]phenyl]-4-hydroxy-6-methylpyridine-3-carboxamide]",–,–,–,> 300,100 to 300,100 to 300
"CCn1cc(C(=O)Nc2ccc(Oc3ccnc4cc(OC)c(OC)nc34)cc2)c(=O)c(-c2ccc(F)cc2)c1 [Compound 167, N-[4-[(6,7-Dimethoxy-1,5-naphthyridin-4-yl)oxy]phenyl]-1-ethyl-5-(4-fluorophenyl)-4-oxopyridine-3-carboxamide]",100 to 300,< 100,< 100,–,–,–
"COc1nc2c(Oc3ccc(NC(=O)c4cncc(-c5ccc(F)cc5)c4O)cc3F)ccnc2cc1Br [Compound 129, N-[4-[(7-Bromo-6-methoxy-1,5-naphthyridin-4-yl)oxy]-3-fluorophenyl]-5-(4-fluorophenyl)-4-hydroxypyridine-3-carboxamide]",< 100,< 100,< 100,–,–,–
"COc1cc2c(Oc3ccc(NC(=O)c4cnc(C)c(-c5ccc(F)cc5)c4O)cc3F)ccnc2cn1 [Compound 639, N-[3-fluoro-4-[(6-methoxy-1,7-naphthyridin-4-yl)oxy]phenyl]-5-(4-fluorophenyl)-4-hydroxy-6-methylpyridine-3-carboxamide]",–,–,–,> 300,< 100,< 100
"Cc1nc2c(Oc3ccc(NC(=O)c4cn(C(C)C)c(C)c(-c5ccc(F)cc5)c4=O)cc3F)ccnc2cc1-c1cnn(C(F)F)c1 [Compound 614, N-[4-[[7-[1-(Difluoromethyl)pyrazol-4-yl]-6-methyl-1,5-naphthyridin-4-yl]oxy]-3-fluorophenyl]-5-(4-fluorophenyl)-6-methyl-4-oxo-1-propan-2-ylpyridine-3-carboxamide hydrochloride]",–,–,–,> 300,< 100,< 100
"COc1cc2nccc(Oc3ccc(NC(=O)c4cn(C(C)C)c(C)c(-c5ccc(F)cc5)c4=O)cc3F)c2nc1Br [Compound 143, N-[4-[(6-Bromo-7-methoxy-1,5-naphthyridin-4-yl)oxy]-3-fluorophenyl]-5-(4-fluorophenyl)-6-methyl-4-oxo-1-propan-2-ylpyridine-3-carboxamide]",> 300,< 100,< 100,–,–,–
"COc1cc2nccc(Oc3ccc(NC(=O)c4cn(C(C)C)c(C)c(-c5ccc(F)cc5)c4=O)cc3F)c2nc1NS(C)(=O)=O [Compound 581, N-[3-Fluoro-4-[[6-(methanesulfonamido)-7-methoxy-1,5-naphthyridin-4-yl]oxy]phenyl]-5-(4-fluorophenyl)-6-methyl-4-oxo-1-propan-2-ylpyridine-3-carboxamide]",–,–,–,< 100,< 100,< 100
"COc1cc2nccc(Oc3ccc(NC(=O)c4cn(C(C)C)c(C)c(-c5ccccc5)c4=O)cc3F)c2nc1OC [Compound 29, N-[4-[(6,7-Dimethoxy-1,5-naphthyridin-4-yl)oxy]-3-fluorophenyl]-6-methyl-4-oxo-5-phenyl-1-propan-2-ylpyridine-3-carboxamide hydrochloride]",< 100,< 100,< 100,–,–,–

# The next lines start with the values.
"IC50 [1, 4] [nM]","IC50 [2, 5] [nM]","IC50 [3, 6] [nM]",IC50 ([1]; protocol of Example B-2) [nM],IC50 ([2]; protocol of Example D-2) [nM],IC50 ([3]; protocol of Example C-2) [nM],Compound
> 300,< 100,< 100,–,–,–,"COc1cc2nccc(Oc3ccc(NC(=O)c4cn(-c5cnn(C)c5)c(C)c(-c5ccc(F)cc5)c4=O)cc3F)c2nc1OC [Compound 140, N-[4-[(6,7-Dimethoxy-1,5-naphthyridin-4-yl)oxy]-3-fluorophenyl]-5-(4-fluorophenyl)-6-methyl-1-(1-methylpyrazol-4-yl)-4-oxopyridine-3-carboxamide]"
–,–,–,> 300,< 100,< 100,"Cc1nc2c(Oc3ccc(NC(=O)c4cnc(C)c(-c5ccc(F)cc5)c4O)cc3)ccnc2cc1-c1cccnc1 [Compound 616, 5-(4-Fluorophenyl)-4-hydroxy-6-methyl-N-[4-[(6-methyl-7-pyridin-3-yl-1,5-naphthyridin-4-yl)oxy]phenyl]pyridine-3-carboxamide hydrochloride]"
< 100,< 100,< 100,–,–,–,"COc1cc2nccc(Oc3ccc(NC(=O)c4cn(OC)cc(-c5ccc(F)cc5)c4=O)cc3)c2nc1OC [Compound 127, N-[4-[(6,7-Dimethoxy-1,5-naphthyridin-4-yl)oxy]phenyl]-5-(4-fluorophenyl)-1-methoxy-4-oxopyridine-3-carboxamide]"
–,–,–,> 300,< 100,< 100,"CCc1nc2c(Oc3ccc(NC(=O)c4cn(C(C)C)c(C)c(-c5ccc(F)cc5)c4=O)cc3F)ccnc2cc1OC [Compound 588, N-[4-[(6-Ethyl-7-methoxy-1,5-naphthyridin-4-yl)oxy]-3-fluorophenyl]-5-(4-fluorophenyl)-6-methyl-4-oxo-1-propan-2-ylpyridine-3-carboxamide]"
–,–,–,100 to 300,100 to 300,< 100,"Cc1nc(C)c(-c2ccc(F)cc2)c(O)c1C(=O)Nc1ccc(Oc2ccnc3cc(C(C)C)cnc23)c(F)c1 [Compound 595, 5-(4-Fluorophenyl)-N-[3-fluoro-4-[(7-propan-2-yl-1,5-naphthyridin-4-yl)oxy]phenyl]-4-hydroxy-2,6-dimethylpyridine-3-carboxamide]"
< 100,< 100,< 100,–,–,–,"COc1cc2nccc(Oc3ccc(NC(=O)c4cnc(C)c(-c5ccc(F)cc5)c4O)cc3)c2nc1OC [Compound 119, N-[4-[(6,7-Dimethoxy-1,5-naphthyridin-4-yl)oxy]phenyl]-5-(4-fluorophenyl)-4-hydroxy-6-methylpyridine-3-carboxamide]"
–,–,–,100 to 300,< 100,< 100,"Cc1nc2c(Oc3ccc(NC(=O)c4cnc(C)c(-c5ccc(F)cc5)c4O)cc3F)ccnc2cc1-c1cccnc1 [Compound 618, N-[3-Fluoro-4-[(6-methyl-7-pyridin-3-yl-1,5-naphthyridin-4-yl)oxy]phenyl]-5-(4-fluorophenyl)-4-hydroxy-6-methylpyridine-3-carboxamide hydrochloride]"
> 300,< 100,< 100,–,–,–,"COc1nc2c(Oc3ccc(NC(=O)c4cn(C(C)C)cc(-c5ccc(F)cc5)c4=O)cc3F)ccnc2cc1Br [Compound 131, N-[4-[(7-Bromo-6-methoxy-1,5-naphthyridin-4-yl)oxy]-3-fluorophenyl]-5-(4-fluorophenyl)-4-oxo-1-propan-2-ylpyridine-3-carboxamide]"
